US20230398130A1, “METHODS AND COMPOSITIONS FOR DIFFERENTIATING STEM CELLS” (Massachusetts Institute of Technology, priority 2020, published 2023)

Key:
ISC-enriched organoids [1] = assay: Primary screen, 384-well 2.5-D organoid differentiation (ENR+CD, 6 days): carbachol-induced lysozyme secretion (LYZ.S); format: cell-based, murine; details: for Dose.FC.LYZ.S / Z.LYZ.S / SSMD.LYZ.S / Dose.FC.LYZ.S (log 2 fold change): primary screen; for Dose.FC.LYZ.S: FC vs plate median; for Z.LYZ.S: standard z score; for SSMD.LYZ.S: strictly standardized mean difference; for Dose.FC.LYZ.S (log 2 fold change, carbachol-induced lysozyme secretion) / Dose.FC.LYZ.S (log 2 fold change): vs plate median
Text: (§1) High-throughput screening.

ISC-enriched organoids [2] = assay: Primary screen, 384-well 2.5-D organoid differentiation (ENR+CD, 6 days): basal lysozyme secretion (LYZ.NS); format: cell-based, murine; details: for Dose.FC.LYZ.NS: FC vs plate median; for Z.LYZ.NS: standard z score; for SSMD.LYZ.NS: strictly standardized mean difference; for Dose.FC.LYZ.NS (log 2 fold change, basal lysozyme secretion) / Dose.FC.LYZ.NS (log 2 fold change): vs plate median
Text: as §1

ISC-enriched organoids [3] = assay: Primary screen, 384-well 2.5-D organoid differentiation (ENR+CD, 6 days, Target Selective Inhibitor Library, vs whole-plate median): ATP (CellTiter-Glo 3D, CTG); details: for Dose.FC.CTG: FC vs plate median; for Z.CTG: standard z score; for SSMD.CTG: strictly standardized mean difference; for Dose.FC.CTG (log 2 fold change, ATP) / Dose.FC.CTG (log 2 fold change): vs plate median
[4] = 1st of the 4 dose lines of the treatment (dose not given)
[5] = 2nd of the 4 dose lines of the treatment (dose not given)
[6] = 3rd of the 4 dose lines of the treatment (dose not given)
[7] = 4th of the 4 dose lines of the treatment (dose not given)
[8] = primary screen, 1st of the 4 dose lines of the treatment (dose not given)
[9] = primary screen, 2nd of the 4 dose lines of the treatment (dose not given)
[10] = primary screen, 3rd of the 4 dose lines of the treatment (dose not given)
[11] = primary screen, 4th of the 4 dose lines of the treatment (dose not given)

## Maraviroc
ISC-enriched organoids [1]; Dose 0.08 uM
  Dose.FC.LYZ.S: 0.054 log 2 fold change
ISC-enriched organoids [1]; Dose 0.40 uM
  Dose.FC.LYZ.S: 0.195 log 2 fold change
ISC-enriched organoids [1]; Dose 2.00 uM
  Dose.FC.LYZ.S: 0.005 log 2 fold change
ISC-enriched organoids [1]; Dose 10.00 uM
  Dose.FC.LYZ.S: 0.077 log 2 fold change
ISC-enriched organoids [1]; [4]
  Z.LYZ.S: 0.350
  SSMD.LYZ.S: 0.262
ISC-enriched organoids [1]; [5]
  Z.LYZ.S: 1.262
  SSMD.LYZ.S: 0.754
ISC-enriched organoids [1]; [6]
  Z.LYZ.S: 0.034
  SSMD.LYZ.S: 0.028
ISC-enriched organoids [1]; [7]
  Z.LYZ.S: 0.495
  SSMD.LYZ.S: 0.400
ISC-enriched organoids [2]; Dose 0.08 uM, primary screen
  Dose.FC.LYZ.NS: 0.047 log 2 fold change
  Z.LYZ.NS: 0.411
ISC-enriched organoids [2]; Dose 0.40 uM, primary screen
  Dose.FC.LYZ.NS: 0.041 log 2 fold change
  Z.LYZ.NS: 0.358
ISC-enriched organoids [2]; Dose 2.00 uM, primary screen
  Dose.FC.LYZ.NS: 0.031 log 2 fold change
  Z.LYZ.NS: 0.269
ISC-enriched organoids [2]; Dose 10.00 uM, primary screen
  Dose.FC.LYZ.NS: 0.087 log 2 fold change
  Z.LYZ.NS: 0.759
ISC-enriched organoids [2]; [8]
  SSMD.LYZ.NS: 0.274
ISC-enriched organoids [2]; [9]
  SSMD.LYZ.NS: 0.365
ISC-enriched organoids [2]; [10]
  SSMD.LYZ.NS: 0.225
ISC-enriched organoids [2]; [11]
  SSMD.LYZ.NS: 0.547
ISC-enriched organoids [3]; Dose 0.08 uM, primary screen
  Dose.FC.CTG: −0.084 log 2 fold change
  Z.CTG: −0.201
ISC-enriched organoids [3]; Dose 0.40 uM, primary screen
  Dose.FC.CTG: 0.079 log 2 fold change
  Z.CTG: 0.188
ISC-enriched organoids [3]; Dose 2.00 uM, primary screen
  Dose.FC.CTG: −0.009 log 2 fold change
  Z.CTG: −0.022
ISC-enriched organoids [3]; Dose 10.00 uM, primary screen
  Dose.FC.CTG: 0.139 log 2 fold change
  Z.CTG: 0.331
ISC-enriched organoids [3]; [8]
  SSMD.CTG: −0.294
ISC-enriched organoids [3]; [9]
  SSMD.CTG: 0.187
ISC-enriched organoids [3]; [10]
  SSMD.CTG: −0.030
ISC-enriched organoids [3]; [11]
  SSMD.CTG: 0.270

## O=C(c1cncc(Br)c1)N1CCC(N2CCCC2)CC1 [UNC669]
ISC-enriched organoids [1]; dose 0.08 uM
  Dose.FC.LYZ.S (log 2 fold change, carbachol-induced lysozyme secretion): 0.047
ISC-enriched organoids [1]; dose 0.40 uM
  Dose.FC.LYZ.S (log 2 fold change, carbachol-induced lysozyme secretion): −0.029
ISC-enriched organoids [1]; dose 2.00 uM
  Dose.FC.LYZ.S (log 2 fold change, carbachol-induced lysozyme secretion): 0.025
ISC-enriched organoids [1]; dose 10.00 uM
  Dose.FC.LYZ.S (log 2 fold change, carbachol-induced lysozyme secretion): 0.002
ISC-enriched organoids [2]; dose 0.08 uM
  Z.LYZ.NS (standard z score): 0.578
  Dose.FC.LYZ.NS (log 2 fold change, basal lysozyme secretion): 0.066
ISC-enriched organoids [2]; dose 0.40 uM
  Z.LYZ.NS (standard z score): −0.048
  Dose.FC.LYZ.NS (log 2 fold change, basal lysozyme secretion): −0.006
ISC-enriched organoids [2]; dose 2.00 uM
  Z.LYZ.NS (standard z score): 0.606
  Dose.FC.LYZ.NS (log 2 fold change, basal lysozyme secretion): 0.070
ISC-enriched organoids [2]; dose 10.00 uM
  Z.LYZ.NS (standard z score): 0.249
  Dose.FC.LYZ.NS (log 2 fold change, basal lysozyme secretion): 0.029
ISC-enriched organoids [3]; dose 0.08 uM
  Z.CTG (standard z score): −0.226
  Dose.FC.CTG (log 2 fold change, ATP): −0.095
ISC-enriched organoids [3]; dose 0.40 uM
  Z.CTG (standard z score): 0.228
  Dose.FC.CTG (log 2 fold change, ATP): 0.096
ISC-enriched organoids [3]; dose 2.00 uM
  Z.CTG (standard z score): −0.561
  Dose.FC.CTG (log 2 fold change, ATP): −0.235
ISC-enriched organoids [3]; dose 10.00 uM
  Z.CTG (standard z score): 0.174
  Dose.FC.CTG (log 2 fold change, ATP): 0.073

## Oc1ccc(Nc2nc(-c3ccc(Cl)cc3)cs2)cc1 [SKI II]
ISC-enriched organoids [1]; Dose 0.08 uM
  Dose.FC.LYZ.S (log 2 fold change): 0.090
ISC-enriched organoids [1]; Dose 0.40 uM
  Dose.FC.LYZ.S (log 2 fold change): 0.123
ISC-enriched organoids [1]; Dose 2.00 uM
  Dose.FC.LYZ.S (log 2 fold change): 0.061
ISC-enriched organoids [1]; Dose 10.00 uM
  Dose.FC.LYZ.S (log 2 fold change): −0.191
ISC-enriched organoids [2]; Dose 0.08 uM, primary screen
  Z.LYZ.NS (standard z score): 0.683
  Dose.FC.LYZ.NS (log 2 fold change): 0.078
ISC-enriched organoids [2]; Dose 0.40 uM, primary screen
  Z.LYZ.NS (standard z score): 1.906
  Dose.FC.LYZ.NS (log 2 fold change): 0.219
ISC-enriched organoids [2]; Dose 2.00 uM, primary screen
  Z.LYZ.NS (standard z score): 0.647
  Dose.FC.LYZ.NS (log 2 fold change): 0.074
ISC-enriched organoids [2]; Dose 10.00 uM, primary screen
  Z.LYZ.NS (standard z score): −1.362
  Dose.FC.LYZ.NS (log 2 fold change): −0.156
ISC-enriched organoids [3]; Dose 0.08 uM, primary screen
  Z.CTG (standard z score): 0.699
  Dose.FC.CTG (log 2 fold change): 0.293
ISC-enriched organoids [3]; Dose 0.40 uM, primary screen
  Z.CTG (standard z score): 0.531
  Dose.FC.CTG (log 2 fold change): 0.222
ISC-enriched organoids [3]; Dose 2.00 uM, primary screen
  Z.CTG (standard z score): 0.473
  Dose.FC.CTG (log 2 fold change): 0.198
ISC-enriched organoids [3]; Dose 10.00 uM, primary screen
  Z.CTG (standard z score): −0.802
  Dose.FC.CTG (log 2 fold change): −0.336

## O=C(NNc1nc2cc(F)ccc2n2cccc12)c1cnccn1 [SC144]
ISC-enriched organoids [1]; Dose 0.08 uM
  Dose.FC.LYZ.S (log 2 fold change): 0.098
ISC-enriched organoids [1]; Dose 0.40 uM
  Dose.FC.LYZ.S (log 2 fold change): 0.014
ISC-enriched organoids [1]; Dose 2.00 uM
  Dose.FC.LYZ.S (log 2 fold change): −0.131
ISC-enriched organoids [1]; Dose 10.00 uM
  Dose.FC.LYZ.S (log 2 fold change): −0.211
ISC-enriched organoids [2]; Dose 0.08 uM, primary screen
  Z.LYZ.NS (standard z score): 0.582
  Dose.FC.LYZ.NS (log 2 fold change): 0.067
ISC-enriched organoids [2]; Dose 0.40 uM, primary screen
  Z.LYZ.NS (standard z score): −0.112
  Dose.FC.LYZ.NS (log 2 fold change): −0.013
ISC-enriched organoids [2]; Dose 2.00 uM, primary screen
  Z.LYZ.NS (standard z score): −0.220
  Dose.FC.LYZ.NS (log 2 fold change): −0.025
ISC-enriched organoids [2]; Dose 10.00 uM, primary screen
  Z.LYZ.NS (standard z score): −1.355
  Dose.FC.LYZ.NS (log 2 fold change): −0.156
ISC-enriched organoids [3]; Dose 0.08 uM, primary screen
  Z.CTG (standard z score): 0.381
  Dose.FC.CTG (log 2 fold change): 0.160
ISC-enriched organoids [3]; Dose 0.40 uM, primary screen
  Z.CTG (standard z score): 0.309
  Dose.FC.CTG (log 2 fold change): 0.129
ISC-enriched organoids [3]; Dose 2.00 uM, primary screen
  Z.CTG (standard z score): −0.613
  Dose.FC.CTG (log 2 fold change): −0.257
ISC-enriched organoids [3]; Dose 10.00 uM, primary screen
  Z.CTG (standard z score): −2.113
  Dose.FC.CTG (log 2 fold change): −0.885
